Data taken from US20250213645A1, “PHARMACEUTICAL COMPOSITION FOR MODULATING IMMUNE RESPONSE” (L-BASE CO., LTD., priority 2021, published 2025).
Where a SMILES comes first, the peptide text is derived from it. Where no end group is shown, it is not given here.

How the values were obtained:
[1] = tested on: CT26 cancer cells in which CAGE expression was induced; assay: Anticancer efficacy of compound and anti-PD-1, alone or combined, in syngeneic mouse model; assay type: in vivo; details: for absolute weight of the tumor: tumor removed on day 15, compound 10 mpk i.v. every 2 days, anti-PD-1 10 mg/kg i.p. every 3 days; for tumor volume (tumor growth): vs control, compound 10 mpk intravenously every 2 days, anti-PD-1 10 mg/kg intraperitoneally every 3 days, up to day 15
Description: (§1) CT26 cancer cells in which CAGE expression was induced were mixed with Matrigel in a ratio of 1:1, and 200 μL of the cell mixture was injected into a female BALB/c mouse at a concentration of 1×10^6 cells/mouse to produce a syngeneic mouse model. After cell inoculation was completed, when the volume of the formed tumor reached 70 to 120 mm^3, groups were randomly separated and drug administration was performed. A cancer immunotherapy drug (anti-PD-1) was intraperitoneally administered at intervals of 3 days at a concentration of 10 mg/kg (mpk), and the compounds according to the present invention, AQTGTGKT, 3-PhPh-AQTGTGKT, and naphthyl-AQTGTGKT, were administered intravenously at intervals of 2 days at a concentration of 10 mpk. The size of the tumor was measured twice a week to calculate a tumor volume, and the weight of a subject was also measured. On day 15 after the start of administration, the tumor was removed, and the absolute weight was measured.

CXCL10 = CXCL10 mRNA expression in tumor tissue by real-time PCR; assay type: in vivo, mouse; details: relative to control, 2^-ΔΔCt method; FIG. 12
Description: After administering the cancer immunotherapy drug and the compound of the present invention alone or in combination to a syngeneic mouse model produced using CT26 cells in which CAGE expression was induced, tumor tissue was isolated from each subject. RNA was extracted from the obtained tumor tissue, cDNA was synthesized, and then an mRNA expression level of the CXCL10 gene was measured through real-time PCR. For each mRNA, a relative expression level compared to the control was calculated through the 2^−ΔΔ^Ct method.

[2] = tested on: CT26 cancer cells in which CAGE expression was induced; assay: Anticancer efficacy of 3-PhPh-AQTGTGKT and anti-CTLA4, alone or combined, in syngeneic mouse model; assay type: in vivo; details: 3-PhPh-AQTGTGKT 10 mpk i.v. every 2 days, anti-CTLA4 5 mpk i.p. every 3 days
Description: as §1, with “(anti-CTLA4)” for “(anti-PD-1)”, “5 mpk,” for “10 mg/kg (mpk),”, “compound of” for “compounds according to”, “invention (3-PhPh-AQTGTGKT) was intravenously” for “invention, AQTGTGKT, 3-PhPh-AQTGTGKT, and naphthyl-AQTGTGKT, were”, “administered” for “administered intravenously”

T cells or macrophages = assay type: in vivo, mouse
Description: (§2) After administering the cancer immunotherapy drug and the compound of the present invention alone or in combination to a syngeneic mouse model produced using CT26 cells in which CAGE expression was induced, tumor tissue was isolated from each subject. The obtained tumor tissue was made into a paraffin block and then sectioned, and histological analysis was performed by performing H&E staining and microscopic observation on tissue slides. […] Fluorescent images were taken at 20× magnification using a confocal microscope, and the number of T cells and macrophages (M2- and M1-type macrophages) on the entire screen was then measured and analyzed.

[3] = tested on: CT26 cancer cells in which CAGE expression was induced; assay: Overall survival (OS) period, Kaplan Meier analysis, syngeneic mouse model; assay type: in vivo; details: for 39 days, 3-PhPh-AQTGTGKT 10 mpk i.v. every 2 days, anti-CTLA4 5 mpk, anti-PD-1 10 mpk every 3 days
Description: Next, an overall survival (OS) period according to the single or combined administration of the compound of the present invention and the cancer immunotherapy drug was compared. CT26 cancer cells in which CAGE expression was induced were mixed with Matrigel in a ratio of 1:1, and 200 μL of the cell mixture was injected into a female BALB/c mouse at a concentration of 1×10^6 cells/mouse to produce a syngeneic mouse model. After cell inoculation was completed, when the volume of the formed tumor reached 70 to 120 mm^3, groups were randomly separated and drug administration was performed. The cancer immunotherapy drug (anti-CTLA4) was administered at intervals of 3 days at a concentration of 5 mpk, and the compound of the present invention (3-PhPh-AQTGTGKT) was intravenously administered at intervals of 2 days at a concentration of 10 mpk, and the survival rate of the subjects was analyzed using Kaplan Meier analysis.
Subsequently, the effect of the coadministration of the compound of the present invention and a different cancer immunotherapy drug on the survival rate of subjects was confirmed. CT26 cancer cells in which CAGE expression was induced were mixed with Matrigel in a ratio of 1:1, and 200 μL of the cell mixture was injected into a female BALB/c mouse at a concentration of 1×10^6 cells/mouse to produce a syngeneic mouse model. […]

[4] = tested on: CT26 cells in which CAGE expression was induced; assay: Histological analysis of tumor tissue by H&E staining; assay type: in vivo, mouse; details: single or combined administration; FIG. 11A
Description: as §2

Row | Compound | absolute weight of the tumor [1] | tumor volume (tumor growth) [1] | CXCL10 mRNA expression level in tumor tissue (CXCL10) | tumor growth (tumor volume) ([2]; from day 11) | absolute weight of the tumor ([2]; tumor removed on day 15) | frequency of M2 macrophages (CD206) in tumor tissue (T cells or macrophages; FIG. 11C) | frequency of total macrophages (F4/80) in tumor tissue (T cells or macrophages; FIG. 11C) | frequency of cytotoxic T cells (CD8 T cells) in tumor tissue (T cells or macrophages; mouse, in vivo) | frequency of total T cells (CD4 T cells) in tumor tissue (T cells or macrophages; vs control or single administration groups, FIG. 11B) | subjects survived ([3]; of 10 subjects, control 2 survived) | subjects died ([3]; control 8 died) | tumor cell death in tumor tissue (H&E staining) [4]
1 | C[C@H](NC(=O)c1ccc2ccccc2c1)C(=O)N[C@@H](CCC(N)=O)C(=O)N[C@H](C(=O)NCC(=O)N[C@H](C(=O)NCC(=O)N[C@@H](CCCCN)C(=O)N[C@H](C(=O)O)[C@@H](C)O)[C@@H](C)O)[C@@H](C)O [naphthyl-AQTGTGKT, Naphthyl-AQTGTGKT] (HELM PEPTIDE1{[O=C(c1ccc2ccccc2c1)[*:2]].A.Q.T.G.T.G.K.T}$$$$V2.0) | no significant difference between the tumor weight | no significant difference in tumor volume | – | – | – | – | – | – | – | – | – | –
2 | C[C@H](NC(=O)c1cccc(-c2ccccc2)c1)C(=O)N[C@@H](CCC(N)=O)C(=O)N[C@H](C(=O)NCC(=O)N[C@H](C(=O)NCC(=O)N[C@@H](CCCCN)C(=O)N[C@H](C(=O)O)[C@@H](C)O)[C@@H](C)O)[C@@H](C)O [3-PhPh-AQTGTGKT] (HELM PEPTIDE1{[O=C(c1cccc(-c2ccccc2)c1)[*:2]].A.Q.T.G.T.G.K.T}$$$$V2.0) | lower than that of the control | tumor growth began to decrease compared to the control | similar | statistically significant decrease in tumor growth | lower than that of the control | no significant difference between the frequencies of macrophages | no significant difference between the frequencies of macrophages | no significant differences in the frequency of immune cells | no significant differences in the frequency of immune cells | 3 | 7 out of 10 subjects | some areas where tumor cells were killed were observed
3 | AQTGTGKT [AQTGTGKT] | no significant difference between the tumor weight | no significant difference in tumor volume | – | – | – | – | – | – | – | – | – | –
